In patent US5990137A, “Method of inhibiting NADPH oxidase” (Idun Pharmaceuticals, Inc., priority 1998, dated 1999):

Tests used:
[1] = tested on: isolated neutrophils (opsonized zymosan-stimulated oxidative burst); experiment: Measurement of chemiluminescence of isolated neutrophils (neutrophil burst, Lucigenin); format: cell-based; details: for IC50 / Neutrophil Burst IC50 (Lucigenin): 14 min, opsonized zymosan, lucigenin, 37° C.
Protocol: Whole blood (150 ml) was anticoagulated with Acid Citrate Dextrose (ACD) using a ratio of 1:5 ACD to blood.
All steps are to be performed using polypropylene plastic ware.
a. Whole blood (60 ml) was added to each of three 100 ml polypropylene graduated cylinders containing 30 ml of […]. The cylinders were covered securely with Parafilm. The blood was allowed to sediment for approximately 1 hour at room temperature.
b. The turbid straw-colored layer was harvested from the top of the cylinders into 50 ml conical polypropylene tubes. The white blood cells were pelleted by centrifugation at 240×g (Sorvall at 1200 rpm) for 12 min. at 4° C. with the brake on low.
c. The supernatant was removed by aspiration and the pooled pellet resuspended in 4-50 ml cold PBS (w/o Ca, Mg). It was then centrifuged at 240×g (Sorvall at 1200 rpm) for 6 min. at 4° C. with the brake on high.
a. The supernatant was aspirated and the pellet resuspended in 12 ml of cold cell culture-grade water. The pellet was titrated gently with a pipet for exactly 30 seconds then 4 ml of cold 0.6 M KCl was added. It was then QSed to 50 ml with cold PBS (w/o Ca, Mg) and centrifuged at 300×g (Sorvall TY 6000D at 1400 rpm) for 6 min. at 4° C. with the brake on high.
b. Step 2.a. was repeated once more.
a. The supernatant was aspirated and the cells were resuspended in 2.5 ml cold PBS (w/o Ca, Mg). The cell suspension was carefully layered over 3 ml Ficoll-Hypaque in a 15 ml polypropylene conical tube. It was then centrifuged at 400×g (Sorvall at 1900 rpm) for 30 min. at 4° C. with the brake on low.
b. Aspiration occurred down to the neutrophil pellet. The pellet was resuspended fin cold PBS (w/o Ca, Mg) and transferred to a 50 ml conical tube. It was then QSed to 50 ml with cold PBS (w/o Ca, Mg) and centrifuged at 300×g (Sorvall at 1400 rpm) for 6 min. at 4° C. with the brake on high.
d. The supernatant was aspirated and the pellet resuspended in 50 ml cold PBS (w/o Ca, Mg) and centrifuged at 300×g (Sorvall at 1400 rpm) for 6 min. with the brake on high.
e. The supernatant was aspirated and the neutrophil pellet resuspended in 4.0 ml cold PBS (w/o Ca, Mg). It was kept on ice. Trypan blue (10 μl) was diluted (1:40) and the cells were counted using a hemacytometer. The cell number and viability by Trypan […] exclusion were determined and the results recorded. The cells were diluted to 5.0×10^6 cells/ml with cold PBS-G (with Ca, Mg) prior to plating for the assay.
2. […] The suspension was centrifuged and the particles resuspended in 7 ml of PBS-G (with Ca, Mg)(18 mg/ml). It was stored on ice until used (briefly vortexed prior to pipetting).
4. PBS-G (10 μl) (with Ca, Mg) was added to the wells in a white 96 well plate.
6. The compound dilutions (10 μl) were added to the appropriate wells.
7. The cell prep was diluted to 5.0×10^6 cells/ml with PBS-G (with Ca, Mg) in a separate multipipette trough.
8. The neutrophil suspension (20 μl) was added to the appropriate wells.
9. The plate was incubated at 37° C. for three minutes.
10. Zymosan (10 μl of 18 mg/ml) was added to the appropriate wells.
11. The plate was read on the luminometer (Labsystems Luminoskan, Needham Heights, Mass.) for 14 min. at 37° C. on the kinetic mode and the results recorded using the software DeltaSoft.
12. The plate data was exported into Excel to determine percent of control and derive the means and standard deviations for the data. The IC50 was determined graphically from the data and plotted using SigmaPlot. For cases where one concentration (50 μM) was tested, percent inhibition was compared to that seen with 50 μM apocynin.
13. The results are set forth below in Table 1 as "Neutrophil Burst IC50 (Lucigenin)". The results for 50 μM inhibition in the single assay are reported as "Neutrophil Burst Screen Value (% @ 50 μM)".

Xanthine oxidase = biological target: T1, Xanthine oxidase (Bos taurus, UniProt P80457); experiment: Xanthine oxidase assay (superoxide by hypoxanthine/xanthine oxidase, Lucigenin); format: biochemical; details: hypoxanthine 150 μM, buttermilk xanthine oxidase, 37° C.; for IC50: read-out: Xanthine Oxidase Inhibition IC50 (Integral)
T1 construct: purchased Sigma x-1875; host or cells: buttermilk

Jurkat cells = experiment: Cytotoxicity assay employing Jurkat cells (MTT); format: cell-based; details: Jurkat clone E6-1, MTT, 37° C. overnight
Protocol: This Assay was performed as set forth in Hansen et al., Journal of Immunological Methods, 119:203-210 (19930; Mosmann, Journal of Immunological Methods, 65:55-63 (1983); and Slater et al., Biochem. Ciophys. Acta, 77:383 (1963); except as noted below.
Compounds from the following Examples were tested for cytotoxicity using MTT (i.e., 3-[4,5-Dimethylthiazol-2-yl]-2,5-diphenyltetrazolium bromide; Thiazolyl Blue (Sigma, St. Louis, Mo.)).
MTT was dissolved in basal culture media at a concentration of 5 mg/ml. If necessary, it was briefly warmed at 37° C. to fully dissolve, passed through a sterile filter, and aliquoted and stored at -20° C. until use.
The Extraction Buffer used was a solution composed of 20% SDS, 2.5% Acetic Acid (80% 6 stock solution), 2.5% 1N Hcl, 50% Dimethylformamide/50% dissolved in distilled water, SDS was dissolved into buffer components with gentle heating and stirring and the resultant solution was filtered and stored until use.
The MTT solution was added in an amount equal to 10% of the culture volume to each well in a 96-well plate containing 100,000 Jurkat cells/well.
The wells were then incubated for 0.5 to 2 hours in standard culture conditions. A volume of extraction buffer equal to the culture volume was added. The 96-well plate was then sealed. The formazan crystals were allowed to extract at 37° C. for four hours. The plate was read on a spectrophotometer [Spectramax 250, Molecular Devices, Sunnyvale, Calif.] at an absorbance wavelength of 560 nm. (The background absorbance measured at 650 nm was subtracted from the value measured at 560 nm.)
The Jurkat cells (Jurkat clone E6-1) were grown using standard conditions supplied by ATCC (American Type Culture Collection--Rockville, Md.).
The compounds diluted in medium (RPMI 1640 plus 10% fetal bovine serum) stock solution of 100 μM, then this stock solution was further diluted 3-fold before testing in the instant assay.
2-Hydroxy-3-methoxy-E-nitrostyrene tested at 100 μM as death control cells, incubated under the above conditions at 37° C. overnight.
The Extraction Buffer (100 μl) was added to each well and the resultant suspension was incubated 4 hours at 37° C.
The results from this procedure are set forth above in Table 1 in the column marked "Cytotox (MTT/Jurkat)". […] Toxicity was rated "3" if dead cells and >50% reduction in MTT absorbance at 1 μM test compound.

T1 sequence (P80457 whole entry): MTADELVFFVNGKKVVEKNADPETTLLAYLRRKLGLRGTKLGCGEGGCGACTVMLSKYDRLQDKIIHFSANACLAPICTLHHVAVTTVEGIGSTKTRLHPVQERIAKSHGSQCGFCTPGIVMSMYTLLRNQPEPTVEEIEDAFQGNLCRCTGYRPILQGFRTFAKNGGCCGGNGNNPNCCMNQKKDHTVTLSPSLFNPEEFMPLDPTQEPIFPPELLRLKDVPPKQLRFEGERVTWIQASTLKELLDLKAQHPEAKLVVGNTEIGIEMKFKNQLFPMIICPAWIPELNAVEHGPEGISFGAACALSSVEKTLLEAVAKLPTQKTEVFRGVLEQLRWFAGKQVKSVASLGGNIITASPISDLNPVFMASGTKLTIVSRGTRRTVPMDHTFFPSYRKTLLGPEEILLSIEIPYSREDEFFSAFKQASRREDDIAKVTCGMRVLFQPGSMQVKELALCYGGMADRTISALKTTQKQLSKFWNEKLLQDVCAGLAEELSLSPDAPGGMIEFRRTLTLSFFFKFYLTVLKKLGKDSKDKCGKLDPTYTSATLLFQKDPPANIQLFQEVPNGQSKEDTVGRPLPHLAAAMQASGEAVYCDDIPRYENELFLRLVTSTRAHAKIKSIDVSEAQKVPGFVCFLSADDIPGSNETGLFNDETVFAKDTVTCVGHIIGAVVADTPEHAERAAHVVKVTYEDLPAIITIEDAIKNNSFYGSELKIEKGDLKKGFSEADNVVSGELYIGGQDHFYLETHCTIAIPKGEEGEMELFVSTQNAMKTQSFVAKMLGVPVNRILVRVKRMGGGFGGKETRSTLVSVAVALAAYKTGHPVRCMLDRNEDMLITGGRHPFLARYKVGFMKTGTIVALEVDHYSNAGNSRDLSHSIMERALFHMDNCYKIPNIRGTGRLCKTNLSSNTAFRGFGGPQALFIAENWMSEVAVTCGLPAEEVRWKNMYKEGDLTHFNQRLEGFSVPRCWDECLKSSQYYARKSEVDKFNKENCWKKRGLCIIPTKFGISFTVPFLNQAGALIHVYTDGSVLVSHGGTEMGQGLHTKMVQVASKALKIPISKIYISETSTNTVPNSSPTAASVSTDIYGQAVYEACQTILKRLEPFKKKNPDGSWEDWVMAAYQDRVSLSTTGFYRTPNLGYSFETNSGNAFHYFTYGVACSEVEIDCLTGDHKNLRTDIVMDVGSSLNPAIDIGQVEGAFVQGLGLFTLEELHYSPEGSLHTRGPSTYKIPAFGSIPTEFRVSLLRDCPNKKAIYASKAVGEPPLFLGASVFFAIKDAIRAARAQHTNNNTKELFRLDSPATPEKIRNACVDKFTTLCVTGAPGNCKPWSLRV

| SMILES | IC50 (Xanthine oxidase) | Xanthine Oxidase Inhibition IC50 (Integral) (Xanthine oxidase) | Neutrophil Burst IC50 (Lucigenin) [1] | IC50 ([1]; Neutrophil) | Cytotox (MTT/Jurkat) (Jurkat cells) | also measured |
| --- | --- | --- | --- | --- | --- | --- |
| COc1cc(C=Nc2nccs2)ccc1O [B, 2-N'-(3-methoxy-4-hydroxybenzylidene)-2-amino-1,3-thiazole] | – | – | – | – | – | inhibition at 50 µM ([1]; Neutrophil, percent inhibition at 50 μM, single concentration, read-out: Neutrophil Burst Screen Value (% @ 50 μM)): 49.4% |
| COc1ccc(/C=N/N=C/c2ccc(OC)c(O)c2)cc1O [Example 4, Bis[3-Hydroxy-4-Methoxybenzaldehyde]trans,trans-Azine] | – | No Effect | No Effect | – | – | – |
| COc1ccc(/C=N/N=C/c2ccc(OC)cc2O)c(O)c1 [Example 3, Bis[2-Hydroxy-4-Methoxybenzaldehyde]trans,trans-Azine] | – | No Effect | No Effect | – | – | – |
| Oc1ccc(/C=N/N=C/c2ccc(O)c(O)c2)cc1O [Example 12, Bis[3,4 - Dihydroxybenzaldehyde]trans,trans-Azine] | 1.1 µM | – | – | 7.3 µM | 1 (dead cells and >50% reduction in MTT absorbance were observed at 100 μM of the test compound) | – |
| Oc1ccc(/C=N/N=C/c2ccc(O)cc2)cc1 [Example 6, Bis[4-Hydroxybenzaldehyde]trans,trans-Azine] | – | No Effect | – | 13.5 µM | 0 | – |
| COc1cc(/C=N/N=C/c2ccccc2)ccc1O [Example 13, N-[4-Hydroxy-3-Methoxybenzaldehyde]-N'-[Benzaldehyde]trans,trans-Azine] | – | No Effect | – | 44 µM | 0 | – |
| COc1ccc(/C=N/N=C/c2ccc(OC)c(OC)c2)cc1OC [Example 5, Bis[3,4-Dimethoxybenzaldehyde]trans,trans-Azine] | – | No Effect | No Effect | – | – | – |
| COc1ccc(N=Cc2ccc(O)c(OC)c2)cc1 [Example 17, N-(3-Methoxy-4-Hydroxybenzylidene)-p-Methoxyaniline] | – | No Effect | – | 3.1 µM | 0 | – |
| COc1cc(/C=N/N=C/c2cc(OC)c(O)c(OC)c2)cc(OC)c1O [D, Bis[4-hydroxy-3,5-dimethoxybenzaldehyde]-trans,trans-azine] | 70 µM | – | – | – | 1 (dead cells and >50% reduction in MTT absorbance were observed at 100 μM of the test compound) | – |
| COc1ccc(N=Cc2cc(C(C)(C)C)c(O)c(C(C)(C)C)c2)cc1 [Example 16, N-(3,5-di(tert-Butyl)-4-Hydroxybenzylidene)-p-Methoxyaniline] | – | No Effect | – | – | 0 | – |
| COc1cc(/C(C)=N/N=C(\C)c2ccc(O)c(OC)c2)ccc1O [Example 7, Bis[4-Hydroxy-3-Methoxyacetophenone]trans,trans-Azine] | – | No Effect | – | 33.1 µM | 1 (dead cells and >50% reduction in MTT absorbance were observed at 100 μM of the test compound) | – |
| CCOc1cc(/C=N/N=C/c2ccc(O)c(OCC)c2)ccc1O [Example 8, Bis[3-Ethoxy-4-Hydroxybenzaldehyde]trans,trans-Azine] | – | – | No Effect | – | – | – |
| COc1cc(/C=N/N=C/c2cc(Br)c(O)c(OC)c2)cc(Br)c1O [Example 1, Bis[3-Bromo-4-Hydroxy-5-Methoxybenzaldehyde]trans,trans-Azine] | – | – | – | 38 µM | 0 | – |
| COc1cccc(/C=N/N=C/c2cccc(OC)c2OC)c1OC [Example 2, Bis[2,3-Dimethoxybenzaldehyde]trans,trans-Azine] | – | No Effect | No Effect | – | – | – |

Further lines, with some results ahead:

| IC50 (Xanthine oxidase) | Xanthine Oxidase Inhibition IC50 (Integral) (Xanthine oxidase) | Neutrophil Burst IC50 (Lucigenin) [1] | SMILES | IC50 ([1]; Neutrophil) | Cytotox (MTT/Jurkat) (Jurkat cells) | also measured |
| --- | --- | --- | --- | --- | --- | --- |
| 34 µM | – | – | COc1cc(C=Nc2ccc(Br)cc2)cc(OC)c1O [Example 20, N-(3,5-Dimethoxy-4-Hydroxybenzylidene)-p-Bromoaniline] | 9.9 µM | – | – |
| 28 µM | – | – | COc1cc(C=Nc2ccc(F)cc2)cc(OC)c1O [Example 19, N-(3,5-Dimethoxy-4-Hydroxybenzylidene)-p-Fluoroaniline] | 13.2 µM | – | – |
| – | No Effect | – | COc1cccc(/C=N/N=C/c2cccc(OC)c2)c1 [Example 11, Bis[3-Methoxybenzaldehyde]trans,trans-Azine] | – | – | – |
| 20 µM | – | – | COc1cc(/C(C)=N/N=C(\C)c2cc(OC)c(O)c(OC)c2)cc(OC)c1O [Example 9, Bis[3,5-Dimethoxy-4-Hydroxyacetophenone]trans,trans-Azine] | 8.7 µM | – | – |
| 2.1 µM | – | – | COc1cc(C=Nc2nncs2)cc(OC)c1O [Example 21, R-N'-(3,5-Dimethoxy-4-Hydroxybenzylidene)-5-Amino-1,3,4-Thiadiazole] | 8 µM | – | – |
| 16.3 µM | – | – | COc1cc(C=Nc2nncs2)ccc1O [Example 22, 5-N'-(3-Methoxy-4-Hydroxybenzylidene)-5-Amino-1,3,4-Thiadiazole] | 15.5 µM | – | – |
| – | No Effect | No Effect | C(=N\N=C\c1ccncc1)/c1ccncc1 [Example 15, Bis[Pyridine-4-Carboxaldehyde]trans,trans-Azine] | – | – | – |
| 14 µM | – | – | COc1cc(C=Nc2ccccc2)cc(OC)c1O [Example 23, N-(3,5-Dimethoxy-4-Hydroxybenzylidene)Aniline] | 5 µM | – | – |
| – | No Effect | No Effect | CC(C)(C)c1cc(/C=N/N=C/c2cc(C(C)(C)C)c(O)c(C(C)(C)C)c2)cc(C(C)(C)C)c1O [Example 14, Bis[3,5-(tert-Butyl)-4-Hydroxybenzaldehyde]trans,trans-Azine] | – | – | – |
